Laboratory results published in patent US20120225889A1, “USE OF MACROCYCLIC LACTONE DERIVATIVES FOR THE TREATMENT OF INFLAMMATORY DISORDERS” (PIRAMAL LIFE SCIENCES LIMITED, priority 2010, published 2012).
pIC50: −log10 of the molar value.

What was measured:
IL-6 = assay: Synovial tissue assay (spontaneous production): IL-6; format: cell-based; conditions: Homo sapiens, synovial tissue cells from rheumatoid arthritis patients, 16 h, read-out: IC50 of IL-6 inhibition
Text: The ability of compounds of the present invention to inhibit spontaneous production of cytokines from freshly isolated human synovial tissue cells was designed as in reference, Lancet, 29, 244-247, (1989) the disclosure of which is incorporated by reference for the teaching of the assay.
Synovial tissue was obtained from rheumatoid arthritis patients undergoing knee replacement surgery. […] Subsequently, the cells were washed 3 times with RPMI 1640 culture medium and resuspended in complete medium (RPMI 1640 culture medium supplemented with 5% FBS and 5% human serum-AB+(Sigma, USA) at a concentration of 1×10^6 cells/mL. The viability of synovial cells was determined by trypan blue dye exclusion and was uniformly ≧98%. For the experiment, 100 μL of cell suspension was added to the wells of a 96-well culture plate (Nunc, USA). Following cell plating, 100 μL of the culture medium and 1 μL of various concentrations of the test compound (test compound was dissolved in DMSO to obtain a stock solution of 20 mM. […] The IC50 values were calculated by a nonlinear regression method using the GraphPad software (Prism 3.03).

cMyc = assay: Gene expression profile using RTQ-PCR: cMyc; format: cell-based, human; conditions: 3 μM
Method: The effect of the compound of example 7 was measured in stimulated untreated cells from the monocytic cell line (THP-1), human monocytes and synovial cells from rheumatoid arthritis patient. The effect of the compound in the THP-1 cell line was measured in terms of gene expression and was expressed as fold changes as compared to the cell stimulated control with no drug treatment.
THP-1 cells, human monocytes and synovial cells were treated with compound of example 7 or vehicle (0.5% DMSO). Total RNA isolation using a commercial RNA extraction kit (Qiagen Corporation, Germany) The first-strand cDNA was synthesized from total RNA using first strand cDNA synthesis kit from Invitrogen Corporation (California, USA). This was followed by real time quantitative polymerase chain reaction (RTQ PCR) using gene specific primers and standard thermal program of initial denaturation at 95° C. for 5 min and cycles of 95° C. for 10 seconds, followed by 60° C. for 30 seconds (Realplex PCR machine from Eppendorf, Germany). Quantitative measurement of products made during PCR cycles was normalized against a housekeeping gene (Actin) and was used to measure the gene expression as fold changes as compared to respective control.

[1] = test system: DBA/1J mice with collagen induced arthritis; assay: Collagen-induced arthritis in mice; format: in vivo
Method: The experiment was designed as in reference, J. Experimental Medicine, 162, 637-646 (1985), the disclosure of which is incorporated by reference for the teaching of the experiment.
Male DBA/1J mice with body weight range of 18-22 g, aged 8-10 weeks were immunized with an emulsion equivalent to 200 μg of type II collagen (Elastin products, USA) in Freund's Complete Adjuvant (Sigma, USA), injected intradermally at the base of the tail. The animals were boosted with 200 μg of freshly prepared typeII collagen emulsion emulsified in Freund's Complete Adjuant (Sigma, USA) on day 21. A group of naïve mice was also maintained alongside. Naïve animals are the animals which are neither immunized for induction of arthritis nor do they receive any treatment. This group is maintained to take care of the normal changes in the paw thickness with age.
From day 23, mice were examined daily once for the signs of rheumatoid arthritis, using the articular index and paw thickness as parameters. Articular index scoring was performed employing the following criteria:
• 0: No redness or swelling • 1: Redness, but no swelling • 2: Redness and swelling of the paw • 3: Redness and severe swelling of the paw Hind limbs: Scale 0-4 • 0: No redness or swelling • 1: Redness and mild swelling of paw • 2: Redness and moderate swelling of paw and/or swelling of at least one of the digits • 3: Redness and moderate/severe swelling of paw, swelling of ankle joint and/or swelling of one or more digits • 4: Redness and severe swelling of paw, digits and ankle joint, with joint stiffness Mice with a minimum hind paw score of 2, of even one paw, were inducted into the study. Mice were randomized into the various study groups, each group having at least eight animals, and were administered the vehicle (0.5% CMC, 10 mL/kg p.o. and s.c. twice daily), the test compound (5 mg/kg, p.o. and s.c., twice daily) and standard compound Enbrel (Wyeth Limited, UK), 3 mg/kg, s.c., once daily. The test compound was administered as a suspension in CMC. The requisite quantity of the compound was accurately weighed and was hand-pulverized using pestle-mortar. After mixing with minimum quantity of Tween 80 necessary to wet the compound, requisite quantity of 0.5% CMC solution was added and the compound was ground with CMC till the uniform suspension was obtained. Standard compound ‘Enbrel’ was used as an aqueous solution. The dosing of the compounds was done for 12 continuous days.
The following parameters were observed and recorded daily, • 1. Body weight • 2. Articular index • 3. Paw thickness of hind limbs only, in mm using a tension free calipers • 4. Any significant observation regarding the condition of the animals.
On 13th day morning, 1 h after the compound treatment, the animals were sacrificed, blood withdrawn, and plasma collected for drug level analyses. Also, the hind limbs of all the animals were preserved for histopathological evaluations.

With C/C=C/C(O)C(C)/C=C/C(=N\O)C(C)C(O)C(C)C1OC(=O)/C(OC)=C/C(C)=C/C(C)C(O)C(CC)C(O)C(C)C/C(C)=C/C=C/C1OC (centres unmarked) [Compound of example 7, (3Z,5E,13E,15E)-18-((5Z,6E,10E)-3,9-Dihydroxy-5-(hydroxymino)-4,8-dimethyldodeca-6,10-dien-2-yl)-9-ethyl-8,10-dihydroxy-3,17-dimethoxy-5,7,11,13-tetramethyl oxacyclooctadeca-3,5,13,15-tetraen-2-one] the pIC50 (IL-6) was 6.52, the cMyc gene expression (cMyc; Human monocytes, 3 h, ± SE, N = 3) was −1.9 + 1.7 log fold change and the cMyc gene expression (cMyc; Synovial cells, 12 h, N = 1) was −0.5 log fold change. For the same compound, the cMyc gene expression (cMyc; THP-1 cells, 12 h, ± SE, N = 3) was −1.1 log fold change, the severity of arthritis ([1]; 5.0 mg/kg CMC suspension, subcutaneously twice daily, 12 days) was “reduced the severity of arthritis” and the “benefit compared with Enbrel” value ([1]; 5.0 mg/kg s.c. twice daily vs Enbrel 3 mg/kg, s.c., once daily) was “equal to that achieved with Enbrel treatment”. For the same compound, the “arthritic changes of joints (histopathology observations)” value ([1]; 5 mg/kg, s.c.) was “showed protection against arthritic changes with absence of hyperplasia of synovium” and the “Histological score of the section of paws” value ([1]; compound of example 7 5 mg/kg, s.c., n=10, Enbrel 3 mg/kg, s.c., n=6, vehicle control 15.14+1.0) was 3.6+1.54.
